Molecules are shown by their SMILES. Structures can show the parent of a compound that is named as a salt.

This experiment deals with T1, GSK3β (Homo sapiens, UniProt P49841).
T1 construct: purchased Upstate xy
T1 sequence (P49841 whole entry, species assumed): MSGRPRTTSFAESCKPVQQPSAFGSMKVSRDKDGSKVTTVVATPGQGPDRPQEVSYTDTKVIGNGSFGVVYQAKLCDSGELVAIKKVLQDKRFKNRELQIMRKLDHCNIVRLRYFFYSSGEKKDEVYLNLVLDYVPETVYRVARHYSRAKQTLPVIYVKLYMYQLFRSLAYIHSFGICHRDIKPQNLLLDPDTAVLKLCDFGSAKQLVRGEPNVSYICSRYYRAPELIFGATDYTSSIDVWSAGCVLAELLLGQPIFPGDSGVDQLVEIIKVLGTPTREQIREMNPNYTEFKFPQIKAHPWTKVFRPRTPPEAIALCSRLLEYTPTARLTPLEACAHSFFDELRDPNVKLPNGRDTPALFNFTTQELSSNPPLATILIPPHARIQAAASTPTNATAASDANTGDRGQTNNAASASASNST
The experiment in a line: GSK3β biochemical in vitro assay (fluorescence, NADH-coupled). The note with it: 5 nM GSK3β, 40 μM substrate GSM, 50 μM ATP, 30° C., 2 hours. As to the method:
The inhibitory activity of active substances is determined in a biochemical assay. The ingredients required for this purpose are mixed in a black 384-well microtitre plate with transparent base (from Greiner, catalogue number 781092). The requirements in this connection for each well of the 384-well microtitre plate are 5 nM GSK3β (from Upstate, catalogue number xy), 40 μM GSK3B substrate GSM (sequence H-RRRPASVPPSPSLSRHS-(pS)-HQRR, from Upstate, catalogue number 2-533), 30 μM nicotinamide adenine dinucleotide NADH (Roche Diagnostics, catalogue number 10107735), 50 μM adenosine triphosphate ATP (from Sigma, catalogue number A7966), and 2 mM phosphoenolpyruvate (from Roche, catalogue number 128112). The required reaction buffer in which the biochemical reaction takes place consists of 50 mM Trizma hydrochloride tris-HCl pH: 7.5 (from Sigma, catalogue number T3253), 5 mM magnesium chloride MgCl2 (from Sigma, catalogue number M8266), 0.2 mM DL-dithiothreitol DTT (from Sigma, catalogue number D9779), 2 mM ethylenediaminethertetraacid EDTA (from Sigma, catalogue number E6758), 0.01% Triton X-100 (from Sigma, catalogue number T8787) and 0.05% bovine serum albumin BSA (from Sigma, catalogue number B4287).
Active substances are dissolved in dimethyl sulphoxide DMSO (from Sigma, catalogue number D8418) in a concentration of 10 mM. Active substances are added in serial concentrations of 10 μM, 1 μM, 0.1 μM, 0.01 μM, 0.001 μM, 0.0001 μM, 0.00001 μM, 0.000001 μM to the mixtures of the biochemical reaction. As control, dimethyl sulphoxide is added instead of substance in a final concentration of 0.1%.
The reaction is incubated at 30° C. for 2 hours and then the resulting fluorescence is measured in a Tecan Safire-XFLUOR4 instrument, version V4.50 (serial number 12901300283) with the specifications: measurement mode—fluorescence measured from below, extinction wavelength 340 nm, emission wavelength 465 nm, slit width extinction 5 nm, slit width emission 5 nm, gain mode 120, delay 0 μs, number of light flashes per measurement 3, and an integration time of 40 μs.
The activity of the active substances is calculated in relation to these 0% and 100%.
The term IC50 denotes the concentration needed to halve the response being measured. Lower therefore signals greater potency. `Cc1cc(C)cc(-c2cc3nccn3c(NCCNc3ccc([N+](=O)[O-])c(N)n3)n2)c1` [Example 36] displayed an IC50 of 15 nM. In other words, the double-digit nanomolar range.
For `Cc1cc(F)ccc1-c1cc2nccn2c(NCCNc2ccc([N+](=O)[O-])c(N)n2)n1` [Example 39] the value was 23 nM.
For `Nc1nc(NCCNc2nc(-c3ccc(Cl)cc3Cl)cc3nc(CN4CCOCC4)cn23)ccc1[N+](=O)[O-]` [Example 81, N^6-(2-{[7-(2,4-Dichlorophenyl)-2-(morpholin-4-ylmethyl)imidazo[1,2-c]pyrimidin-5-yl]amino}ethyl)-3-nitropyridine-2,6-diamine trifluoroacetate] the value was 8 nM.
Next, `CN(C)CCNC(=O)c1cn2c(NCCNc3ccc(C#N)cn3)nc(-c3ccc(Cl)cc3Cl)cc2n1` [Example 112]: 54 nM; `CCCCc1ccc(-c2cc3nccn3c(NCCNc3ccc([N+](=O)[O-])c(N)n3)n2)cc1` [Example 65]: 188 nM.
`N#Cc1ccc(NCCNc2nc(-c3ccc(C(F)(F)F)cc3)cc3nc(CN4CCOCC4)nn23)nc1N` [Example 180] had an IC50 of 50 nM.
`O=[N+]([O-])c1ccc(NCCNc2nc(-c3ccc(Cl)cc3Cl)cc3nccn23)nc1` [Example 6, N-[7-(2,4-Dichlorophenyl)imidazo[1,2-c]pyrimidin-5-yl]-N′-(5-nitropyridin-2-yl)ethane-1,2-diamine]: half-maximal inhibition (IC50) was put at 44 nM. This IC50 and that of the compound before are within 1.5-fold of each other.
Next, `Nc1nc(NCCNc2nc(-c3ccc(Cl)cc3Cl)cc3nccn23)ccc1[N+](=O)[O-]` [Example 4, N^6-(2-{[7-(2,4-Dichlorophenyl)imidazo[1,2-c]pyrimidin-5-yl]amino}ethyl)-3-nitropyridine-2,6-diamine]: 5 nM.
`Nc1nc(NCCNc2nc(-c3ccc(F)c(Cl)c3)cc3nccn23)ccc1[N+](=O)[O-]` [Example 53] showed an IC50 of 81 nM.
In turn, `N#Cc1ccc(NCCNc2nc(-c3ccc(Cl)cc3Cl)cc3nccn23)nc1N` [Example 148, 2-Amino-6-[(2-{[7-(2,4-dichlorophenyl)imidazo[1,2-c]pyrimidin-5-yl]amino}ethyl)amino]-pyridine-3-carbonitrile] returned an IC50 of 12 nM.
The compound `Nc1nc(NCCNc2nc(-c3ccc(Cl)cc3Cl)cc3nccn23)sc1C(=O)C(F)(F)F` [Example 129] had an IC50 of 7 nM.
For `CC(=O)c1sc(NC2CCCN(c3nc(-c4ccc(Cl)cc4Cl)cc4nccn34)C2)nc1N` (centres unmarked) [Example 128, 1-[4-amino-2-({1-[7-(2,4-dichlorophenyl)imidazo[1,2-c]pyrimidin-5-yl]piperidin-3-yl}amino)-1,3-thiazol-5-yl]ethanone trifluoroacetate] the value was 3 nM; for `N#Cc1ccc(NCCNc2nc(-c3ccc(Cl)cc3Cl)cc3nc(CN4CCOCC4)cn23)nc1` [Example 145, 6-[(2-{[7-(2,4-Dichlorophenyl)-2-(morpholin-4-ylmethyl)imidazo[1,2-c]pyrimidin-5-yl]amino}-ethyl)amino]pyridine-3-carbonitrile trifluoroacetate], 62 nM.
For `CN1CCN(C(=O)c2cn3c(NCCNc4ccc(C#N)cn4)nc(-c4ccc(Cl)cc4Cl)cc3n2)CC1` [Example 111] the value was 89 nM.
Next, `CCOc1ccc(-c2cc3nccn3c(NCCNc3ccc([N+](=O)[O-])c(N)n3)n2)cc1` [Example 56]: 91 nM.
`N#Cc1sc(NC2CCCN(c3nc(-c4ccc(Cl)cc4Cl)cc4ncnn34)C2)nc1N` (centres unmarked) [Example 202]: the IC50 came to 5 nM.
`Nc1nc(NCCNc2nc(-c3ccc(OC(F)(F)F)cc3)cc3nccn23)ccc1[N+](=O)[O-]` [Example 32]: inhibition was half-maximal at 148 nM (IC50). This IC50 is about 30-fold higher than that of the compound before.
For `COC(=O)c1ccc(NCCNc2nc(-c3ccc(Cl)cc3Cl)cc3ncnn23)nc1N` [Example 167] the value was 61 nM; for `CC(=O)c1ccc(NCCNc2nc(-c3ccc(Cl)cc3Cl)cc3nccn23)nc1N` [Example 150, 1-{2-Amino-6-[(2-{[7-(2,4-dichlorophenyl)imidazo[1,2-c]pyrimidin-5-yl]amino}ethyl)amino]-pyridin-3-yl}ethanone hydrochloride], 11 nM; for `N#Cc1ccc(NCCNc2nc(-c3ccc(C(F)(F)F)cc3)cc3nccn23)nc1` [Example 7, 6-{[2-({7-[4-(Trifluoromethyl)phenyl]imidazo[1,2-c]pyrimidin-5-yl}amino)ethyl]amino}-nicotinonitrile], 183 nM.
`N#Cc1ccc(NCCNc2nc(-c3ccc(Cl)cc3Cl)cc3nccn23)nc1` [Example 1, 6-[(2-{[7-(2,4-Dichlorophenyl)imidazo[1,2-c]pyrimidin-5-yl]amino}ethyl)amino]nicotinonitrile]: it took 34 nM to reach half-maximal inhibition (IC50).
Turning to `Cc1cn2c(NCCNc3ccc([N+](=O)[O-])c(N)n3)nc(-c3ccc(Cl)cc3Cl)cc2n1` [Example 77, N^6-(2-{[7-(2,4-Dichlorophenyl)-2-methylimidazo[1,2-c]pyrimidin-5-yl]amino}ethyl)-3-nitropyridine-2,6-diamine], the IC50 amounted to 17 nM.
Next, `CC(C)Cn1cc(-c2cc3nccn3c(NCCNc3ccc([N+](=O)[O-])c(N)n3)n2)cn1` [Example 63]: 173 nM; `N#Cc1sc(NCCNc2nc(-c3ccc(Cl)cc3Cl)cc3nccn23)nc1N` [Example 5, 4-Amino-2-[(2-{[7-(2,4-dichlorophenyl)imidazo[1,2-c]pyrimidin-5-yl]amino}ethyl)amino]-1,3-thiazole-5-carbonitrile]: 15 nM.
`Cc1cccc(-c2cc3nccn3c(NCCNc3ccc([N+](=O)[O-])c(N)n3)n2)c1` [Example 40] showed an IC50 of 24 nM.
For `N#Cc1ccc(NCCNc2nc(-c3ccc(C(F)(F)F)cc3)cc3nc(C(=O)NC(CO)CO)cn23)nc1` [Example 120] the value was 124 nM; for `COC(=O)c1sc(NCCNc2nc(-c3ccc(Cl)cc3Cl)cc3nccn23)nc1N` [Example 134], 22 nM.
Compound `Cc1cccc(-c2cc3nccn3c(NCCNc3ccc([N+](=O)[O-])c(N)n3)n2)c1C` [Example 38] had an IC50 of 23 nM. This IC50 and that of the compound before are within 1.5-fold of each other.
Next, `N#Cc1ccc(NC2CCCN(c3nc(-c4ccc(Cl)cc4Cl)cc4nccn34)C2)nc1` (single isomer, unassigned) [Ent. B 123, 6-({1-[7-(2,4-dichlorophenyl)imidazo[1,2-c]pyrimidin-5-yl]piperidin-3-yl}amino)pyridine-3-carbonitrile trifluoroacetate]: 22 nM; `N#Cc1ccc(NCCNc2nc(-c3ccc(Cl)cc3Cl)cc3ncc(Cl)n23)nc1` [Example 154, 6-[(2-{[3-Chloro-7-(2,4-dichlorophenyl)imidazo[1,2-c]pyrimidin-5-yl]amino}ethyl)amino]-pyridine-3-carbonitrile]: 19 nM; `CC(C)(C)c1ccc(-c2cc3nccn3c(NCCNc3ccc(C#N)cn3)n2)cc1` [Example 8]: 178 nM.
On to `N#Cc1sc(NCCNc2nc(-c3ccc(C(F)(F)F)cc3)cc3ncnn23)nc1N` [Example 186], for which the IC50 worked out at 27 nM.
With `N#Cc1ccc(NCCNc2nc(-c3ccc(Cl)cc3Cl)cc3nc(C(=O)NCC(=O)O)cn23)nc1` [Example 115], the IC50 was determined as 5 nM.
Next, `Nc1nc(NCCNc2nc(-c3ccc(Cl)cc3Cl)cc3nccn23)ccc1C(=O)C(F)(F)F` [Example 149, 1-{2-Amino-6-[(2-{[7-(2,4-dichlorophenyl)imidazo[1,2-c]pyrimidin-5-yl]amino}ethyl)amino]-pyridin-3-yl}-2,2,2-trifluoroethanone hydrochloride]: 10 nM.
`Nc1nc(NCCNc2nc(-c3ccc(Cl)cc3Cl)cc3ncnn23)sc1C(=O)C(F)(F)F` [Example 203]: 3 nM corresponded to half-maximal inhibition (IC50).
In the case of `Nc1nc(NCCNc2nc(-c3ccc(Cl)cc3Cl)cc3nc(CN4CCOCC4)nn23)ccc1C(=O)C(F)(F)F` [Example 194], the IC50 turned out to be 0.7 nM.
For `N#Cc1ccc(NCCNc2nc(-c3ccc(C(F)(F)F)cc3)cc3ncnn23)nc1` [Example 93, 6-{[2-({7-[4-(Trifluoromethyl)phenyl][1,2,4]triazolo[1,5-c]pyrimidin-5-yl}amino)ethyl]amino}-nicotinonitrile] the value was 72 nM; for `Nc1nc(NCCNc2nc(-c3ccc(Cl)cc3Cl)cc3nccn23)sc1C(=O)C1CC1` [Example 131], 6 nM; for `Nc1nc(NCCNc2nc(-c3ccccc3)cc3nccn23)ccc1[N+](=O)[O-]` [Example 57], 93 nM.
Compound `CC(=O)c1sc(NCCNc2nc(-c3ccc(Cl)cc3Cl)cc3nccn23)nc1N` [Example 137] registered a 50% inhibitory concentration (IC50) of 5 nM.
As for `N#Cc1sc(NCCNc2nc(-c3ccc(Cl)cc3Cl)cc3nc(CN4CCOCC4)nn23)nc1N` [Example 185], the IC50 came to 39 nM.

These data come from US8273752B2, “Substituted imidazopyrimidines and triazolopyrimidines” (Bayer Intellectual Property GmbH, priority 2007, dated 2012).
